These results are taken from a melting point compilation (Tetko et al.; mined from patent text by program, amines drawn as free bases though some values may be those of a salt).

One may read the melting point as the temperature, or range, at which the solid turns liquid.

In turn, `O=C1CCCCc2sccc2N1CCCCN1CCN(c2ncccn2)CC1` came in with a melting point of 108 to 112 °C.

For `Cc1ccn2c(=O)c(C(=O)NC3CCCC3)cnc2c1`, the melting point fell in the range of 220 to 222 °C. As for `COc1ccc(C[C@@H](NC(=O)CCCc2ccccc2)[C@@H](O)c2ccc(F)cc2)cc1` (racemic), the figure is 130 to 131 °C; as for `CCOC(=O)c1cc(N)ccc1O`, 40 to 43 °C. `CCc1nnc(-c2ccc(OC)cc2)n1-c1ccc([N+](=O)[O-])cc1` registered a melting point of 178 °C. The compound `COc1nc(OC)nc(SC(C(=O)O)C(C)(C)c2ccccc2)n1` (centres undefined) registered a melting point of 115 to 118 °C. For `CN(C)c1ccc([N+](=O)[O-])c(C(OC(=O)C(Cl)(Cl)Cl)c2ccccc2)c1[N+](=O)[O-]` (centres undefined) the value was 129 to 130 °C. For the compound `C[C@H](CO)Nc1nc(SCc2ccccc2)nc2[nH]c(=O)[nH]c12`, the melting point is 284 °C. Consider `CC(CC(=O)c1ccc2c(c1)C(C)(C)CCC2(C)C)C(=O)O` (centres undefined), for which the melting point amounted to 165 °C. For `CN(CCOc1ccc(OC(F)(F)F)cc1)CC1(C)Cn2cc([N+](=O)[O-])nc2O1` (centres undefined) the value was 86.4 to 89.2 °C. The compound `C[Si](C)(C)C=Cc1cn(C2OC(CO)C(O)C2F)c(=O)[nH]c1=O` (centres undefined) displayed a melting point of 164 to 165 °C. `O=C1NCCc2ccc(OCCCCN3CCN(c4cccc5c4OCC5)CC3)nc2N1` had a melting point of 72 to 73 °C.

For `N#CCOc1cc2c(cc1C#Cc1ccccc1)NC(=O)CC(c1cccc(C#N)c1)=N2`, the melting point amounted to 212 °C. For `COC(=O)c1ccccc1S(=O)(=O)NC(=O)Nc1nc(OC)nc(C2CC2)n1` the value was 166 to 168 °C. With `O=C(Nc1ccc(N2CCN(Cc3ccccc3)CC2)c(Cl)c1)c1ccccn1`, the melting point lay within 92 to 94 °C. `COc1ccc(C(=O)CC(=O)C(C)(C)C)cc1OC`: the melting point lay within 52.3 to 53.3 °C. `CCn1nc(-c2ccccc2)c(C(=O)OCC(=O)OCc2ccccc2)c(Nc2cnccc2C)c1=O` showed a melting point of 115 to 116 °C.

As to `CC(C)(C)C(=O)CNC(=O)c1nn(-c2ccc(F)cc2F)c2c1C1CCC2C1` (centres undefined), the melting point was in the range of 42 to 43 °C.

Compound `C#CC(O)(CO)C(O)c1ncnc2c1ncn2Cc1ccc2c(c1)Nc1nccnc1S2` (centres undefined) had a melting point of 79 to 84 °C. `N#Cc1cccc(CSc2nnc(-c3ccc4[nH]ncc4c3)o2)c1` registered a melting point of 172 to 173 °C. With `O=C(c1ccc(-c2cccs2)cc1)N1Cc2ccccc2Nc2ccccc21`, the melting point lay in the range of 114 to 116 °C. In turn, `c1csc(Cn2ccnc2-c2ncc[nH]2)c1` had a melting point of 153 to 155 °C. In turn, `CCOCc1nc2c(N)nc3ccccc3c2n1CCCNS(C)(=O)=O` had a melting point of 208 to 210 °C. Take `CCCCS(=O)(=O)NC(CNS(=O)(=O)c1cccc(C(=O)C2CCC3(CCNCC3)CC2)c1)C(=O)O` (centres undefined): the melting point is 225 to 235 °C. As for `CCOC(=O)C1=Cc2cc(C=O)ccc2OC1C(F)(F)F` (centres undefined), the figure is 84.3 to 86.2 °C; as for `CCOC(=O)C1=C(C)NC(C)=C(C(=O)OCC)C1c1ccccc1C`, 128 to 130 °C; as for `O=C1CCC2c3ccccc3CCC2N1` (centres undefined), 227 to 228 °C. In turn, `Cc1oc(/C=C/c2ccccc2)nc1COc1ccc(CCCn2ccnc2)cc1` displayed a melting point of 94 to 95 °C. As for `CCc1cccc(C)c1CNc1nc(Br)cnc1N`, the figure is 155 °C; as for `CCCNC(=O)COC1c2ccccc2C(=O)N1c1ccc2ccc(OC)nc2n1` (centres undefined), 174 °C; as for `O=C1COc2ccc(C3=Cc4cc(F)ccc4SC3c3ccc(F)cc3)cc2N1` (centres undefined), 191 to 192 °C. For `CCOC(=O)C(CC#N)(C(=O)OCC)c1ccc([N+](=O)[O-])cn1` the value was 66 to 68 °C; for `CN(C)C(=O)C=Cc1ccc(SC2Cc3cc(O)ccc3C3CCC4(C)C(O)CCC4C23)cc1` (centres undefined), 152 to 155 °C; for `COc1ccc(-c2nc(CCO)sc2-c2ccc(OC)cc2)cc1`, 101 to 104 °C.
